Results on five compounds are retold here after patent US8142829B2, “Beverage composition and method of reducing degradation of monatin” (PepsiCo, Inc., priority 2008, dated 2012).

The structures appear in SMILES notation.

Holding throughout (format): physicochemical
A short description of series [1]: Monatin stabilization / degradation observations in beverage, conditions not stated. Conditions: for monatin stabilization ability (rank order): rank by number of hydroxyl groups on the aryl ring.
A short description of series [2]: Heat treatment of bottled monatin beverage in thermostatically controlled oven, one week at 110° F. The procedure: (§1) The following illustrates specific embodiments of the present invention (i.e., embodiments using EMIQ) but are not intended to limit it. All percentages are by weight unless otherwise stated. Heat treatment of bottled beverage was conducted in a thermostatically controlled oven. UV exposure of bottled beverage was conducted within an Atlas CI 5000 with Xenon arc lamp in a thermostatically controlled oven.
Additional analyses of the lemon/lime (“L/L”) flavored beverages above were conducted to determine formation of lactone (reversible) or lactam (irreversible) from monatin. The accumulation of the two degradation products would reduce sweetness impact over time and reduce consumer acceptance of a product containing a beverage comprising monatin. […] The amounts of ascorbic acid (where indicated) was 333 ppm, and the amount of EMIQ (where indicated) was 7.50 ppm (50 uL of 15% EMIQ as San-Melin AO-3000=7.5 ppm).

Series [3] is described as follows: UV exposure of bottled monatin beverage, Atlas CI 5000 with Xenon arc lamp, 24 hours at 86° F. The procedure: as §1
Additional analyses of the lemon/lime (“L/L”) flavored beverages above were conducted to determine formation of lactone (reversible) or lactam (irreversible) from monatin.
UV exposure of bottled beverage was conducted within an Atlas CI 5000 with Xenon arc lamp in a thermostatically controlled oven.

`COc1cc(/C=C/C(=O)O)ccc1O` [ferulic acid]: the “monatin stabilization ability (rank order)” value (shortened to “monatin stabilization ability”) in series [1] was “caffeic acid (2 hydroxyl groups)>ferulic acid>coumaric acid>cinnamic acid (no hydroxyl groups)”.

For the compound `O=C1O[C@H]([C@@H](O)CO)C(O)=C1O` [ascorbic acid], the “Color Hue Change, 1 week @ 110° F.” value in series [2] (Lemon/Lime Carbonated Soft Drink, 265 ppm sodium benzoate, 333 ppm ascorbic acid where indicated, 30 ppm CaNa2EDTA, 50 ppm monatin) is reported as “No”. Further, the “formation of lactam from monatin” value in series [2] (low pH matrix, heat stress conditions) was “not ascorbic acid”. Also, the “protection against pink coloration and off-flavor development” value in series [3] (24 h of UV exposure) is “protects against pink coloration and off-flavor development”. Besides, the Lactam formation in series [3] (Cola CSD, 24 h UV exposure, 30 ppm myricitrin, 100 ppm EMIQ, 300 ppm ascorbic acid or none) is 2.9 ppm. The “Monatin + lactone” value in series [3] (L/L CSD, 24 h UV exposure, 30 ppm myricitrin, 100 ppm EMIQ, 300 ppm ascorbic acid or none) is listed as 37.7 ppm. Besides, in series [3] (Lemon/Lime Carbonated Soft Drink, 265 ppm sodium benzoate, 333 ppm ascorbic acid where indicated, 30 ppm CaNa2EDTA, 50 ppm monatin, Yes* = pink to rust color develops), the “Color Hue Change, UV 24 hours @ 86° F.” value is reported as “No”. Moreover, the “formation of lactam and color hue change with ascorbic acid” value in series [1] (non-colored carbonated soft drink) was “results in the formation of lactam, a degradation product of monatin, and an undesirable color hue change”.

As for `O=C(O)/C=C/c1ccc(O)c(O)c1` [caffeic acid], the “monatin stabilization ability” value in series [1] is listed as “caffeic acid (2 hydroxyl groups)>ferulic acid>coumaric acid>cinnamic acid (no hydroxyl groups)”.

Consider `O=C(O)C=Cc1ccccc1` [cinnamic acid], for which the “monatin stabilization ability” value in series [1] is listed as “caffeic acid (2 hydroxyl groups)>ferulic acid>coumaric acid>cinnamic acid (no hydroxyl groups)”.

With `O=C(O)/C=C/c1ccc(O)cc1` [coumaric acid], the “monatin stabilization ability” value in series [1] is given as “caffeic acid (2 hydroxyl groups)>ferulic acid>coumaric acid>cinnamic acid (no hydroxyl groups)”.
